The record followed here is US20130324606A1, “Ester Derivatives of Bimatoprost Compositions and Methods” (ALLERGAN, INC., priority 2011, published 2013).

The test system of one data set is C57Black/6J mice. Kind of data set: Piliation (hair regrowth) studies in mice. It counts as in vivo. The settings on record: mouse hair regrowth. The protocol: C57Black/6J, 7-week old female mice (n=10) were employed in piliation studies. Dorsal hair was shaved (area ˜2 cm×4 cm). Dosing of active agent was once per day (QD) by topical administration for 14 days. Observations were conducted for 42-days to determine onset of new hair growth and day of hair growth completion. Compounds were formulated as either a) 50% propylene glycol, 30% ethanol, 20% water, or b) the formulation of Formulation A described above. The experiments reported for FIGS. 4A-4B, 5A-5B, 6A-6B, 8A-8B, and 9A-9B were conducted using a vehicle with formulation of 50% propylene glycol, 30% ethanol, 20% water. The experiments reported for FIGS. 7A-7B were conducted using a vehicle of Formulation A described above.
For each of FIGS. 4A, 5A, 6A, 7A, 8A and 9A, the histograms depict the day of onset of hair growth. For each of FIGS. 4B, 5B, 6B, 7B, 8B and 9B, the histograms depict the day achieving full hair growth.

Data set [1] can be described thus: In vitro human skin penetration (Franz diffusion chamber). The conditions noted are these: FIGS. 14A-14C, 6, 24, 48 hr. It is filed as in vitro ADME.
A short description of data set [2]: Formulation and stability studies. It counts as physicochemical. The conditions noted are these: variations of Formulation A, 0.03% active, pH 4, 5, 6 and 7; 25, 40 and 60° C.; zero time and 80-days. As for the experimental part: Stability over time of compounds disclosed herein was determined in formulation as a function of temperature and pH. Variations of Formulation A described herein were employed wherein the target concentration of active agent was 0.03%, and the pH was varied at pH 4, 5, 6 and 7. Temperatures of 25° C., 40° C. and 60° C. were maintained during the experiment. Samples were evaluated at zero time and 80-days.
Cmpds IVa, IIIb, and IVb for evaluated for stability.
FIGS. 1A-1B, 2A-2B, and 3A-3B depict histograms of relative concentrations of test compounds (arbitrary scale) at zero time or 80-days. FIG. 1A depicts a histogram of the stability profile of Cmpd IVa as a function of pH and temperature. FIG. 1B depicts a histogram of the formation of bimatoprost as a function of pH and temperature after 80-days for Cmpd IVa. FIG. 2A depicts a histogram of the stability profile of Cmpd IVb as a function of pH and temperature. FIG. 2B depicts a histogram of the formation of bimatoprost as a function of pH and temperature after 80-days for Cmpd IVb. FIG. 3A depicts a histogram of the stability profile of Cmpd IIIb as a function of pH and temperature. FIG. 3B depicts a histogram of the formation of bimatoprost as a function of pH and temperature after 80-days for Cmpd IIIb.

A short description of data set [3]: Partitioning in artificial sebum. It counts as physicochemical. As for the experimental part:
Compounds bimatoprost, Cmpd IVa, and Cmpd IIIb were added to aqueous solution (1 mL, 2-20 ug/mL), with and without 1-20 mg artificial sebum. Samples were shaken for 16 hr at 37° C. Samples were then centrifuged (8000 RPM) for 15 min at room temperature, prior to collection of the aqueous solution. Samples were analyzed for concentration of compound without artificial sebum (i.e., Co) and with artificial sebum (i.e., Ci) by mass spectroscopy. Artificial sebum and water partition coefficient (Ksebum) was expressed as the concentration of drug in 1 g of artificial sebum divided by the concentration of drug in 1 g of aqueous solution, and was calculated as Ksebum=(Co−Ci)Waqueous/(Ci×Wsebum) (Eqn. 1), where W represents weight.
Artificial sebum was prepared as follows: 15% (w/w) squalene, 15% spermaceti, 10% coconut oil, 1.5% oleic acid, 5% palmitic acid, 2.4% cholesterol oleate, 10% paraffin wax, 10% olive oil, 25% cottonseed oil, 5% palmitoleic acid, 1.2% cholesterol. The melting point of the semi-liquid was 37° C.

A short description of data set [4]: In vitro human skin penetration (Franz diffusion chamber). It counts as in vitro ADME. An excerpt:
Test material: Dermatomed ex vivo human cadaver posterior trunk skin on 1.0 cm^2 Franz diffusion chamber as known in the art. Test size: 3 skin donors (obtained from New York Firefighters Skin Bank), 3 replicates per donor per formulation. Test formulations: 0.03% active agent (Cmpd IVa, Cmpd IIIb, Cmpd IVb) in Formulation A; control formulation: bimatoprost at 0.03% in Formulation A. Dosing regimen: receptor fluid at 2, 4, 24, and 48 hrs; SC/epidermis and dermis at 48 hrs. Sample analysis: LC/MS-MS to detect bimatoprost and Cmpds IVa, IIIb and IVb.

A short description of data set [5]: Pharmacokinetic assessment of mouse hair regrowth model. It is filed as in vivo. The conditions noted are these: mice, 0.03% dermal daily ~60 uL, all measured time points, LC/MS-MS. As for the experimental part:
Female C57BL/6J mice (n=2) were assayed per time point per treatment group. Treatment groups: (1) vehicle; (2) 0.03% Cmpd IVa; (3) 0.03% Cmpd IIIb; (4) 0.03% Cmpd IVb; (5) 0.03% bimatoprost. Treatment dosing: dermal daily application of ˜60 uL test compound solution. Blood and skin pharmacokinetic time points were obtained at day 1 (1, 4, 8 and 24-hrs post-dose); day 2 (24-hrs post-dose); day 14 (24-hrs post-dose); and day 42 (28 days post day 14 dose). Bioanalysis employed LC/MS-MS.

The subject of data set [6] is reconstructed human epidermis (RHE). Kind of data set: In vitro dermal irritation screening in reconstructed human epidermis. It is filed as cell-based. The conditions noted are these: concentration 0.03%, Formulation A vehicle. The protocol: In vitro irritation screening assays were conducted for compounds described herein. Test system was the reconstructed human epidermis (RHE), as known in the art. Single dosing was employed, and endpoints were evaluated as a function of time up to 24-hrs. Endpoints were tissue viability and IL-1α release.
Test compounds included Cmpds IVa (0.03%), IIIb (0.03%), IVb (0.03%), bimatoprost (0.03%), minoxidil (5%, foam), and minoxidil (5%, solution). Administration of Cmpds IVa, IIIb, IVb and bimatoprost employed the vehicle of Formulation A. See Table 1 above. Administration of minoxidil employed minoxidil vehicle with formulation 20% H2O, 50% propylene glycol, and 30% ethanol.

The next data set concerns mouse skin. In words: Pathology assessment of mouse hair regrowth model. It counts as in vivo, mice. The settings on record: histology, 0.03% active, vehicle control still in growth phase. The text has this:
Histological samples from test subjects employed in the studies described in Example 12 were obtained for pathology assessment.

Turning to `CCNC(=O)CCC/C=C\C[C@@H]1[C@@H](/C=C/[C@H](CCc2ccccc2)OC(C)=O)[C@H](O)C[C@@H]1O` [Cmpd IVa, 15-acetyl-bimatoprost], the “effectiveness of 0.03% compound compared to 0.1% to 0.3% bimatoprost” value in the data set on C57Black/6J mice is listed as “approximately equally effective”. Also, the “pharmacological efficacy relative to bimatoprost” value with C57Black/6J mice (vehicle 50% propylene glycol, 30% ethanol, 20% water) is reported as “efficacy greater than bimatoprost”; in the data set with C57Black/6J mice (vehicle Formulation A), “efficacy greater than bimatoprost”. Besides, the “conversion to bimatoprost in the receptor chamber solution” value in data set [1] was “observed to convert to bimatoprost”. Moreover, the stability in formulation entry in data set [2] is “stable in formulation”. Moreover, in data set [3] (artificial sebum / aqueous solution), the “phase in which the majority of compound remains” value is on record as “remain in the aqueous phase”. For the same molecule, the “Ave. Ksebum (artificial sebum and water partition coefficient)” value in data set [3] (n = 4, 16 hr at 37° C.) came out at 5.1. In addition, the “skin penetration (cumulative amount in receptor solution) relative to bimatoprost” value in data set [4] (0.03% in Formulation A, FIG. 13A) is listed as “significantly greater than for bimatoprost”. The “penetration flux relative to bimatoprost” value in data set [4] (0.03% in Formulation A, FIG. 13B) is “greater than that for bimatoprost”. In addition, the “Percentage Dose Applied, Receptor Chamber Solution, Prodrug” value in data set [4] (0.03% in Formulation A, Franz chamber, dosed compound) was 4.3 Percentage Dose Applied. Further, the “Percentage Dose Applied, Upper ⅓ Dermis, Prodrug” value in data set [4] (0.03% in Formulation A, dermis at 48 hrs, dosed compound) amounted to 3.8 Percentage Dose Applied. In addition, the “conversion to bimatoprost in the SC/Epi/Dermis layers” value in data set [4] (FIG. 15A) is “converted to bimatoprost”. Moreover, the “amount of active agent in the upper third of the dermis relative to bimatoprost” value in data set [4] (FIG. 15B) is “less than observed for bimatoprost”. For the same molecule, the “level in the systemic circulation” value in data set [5] is reported as “most undetectable”. Also, the “potential for irritation of the human skin” value in data set [6] is given as “no indication of potential for irritation”. For the same molecule, the “hair cycle phase at day-42” value in the data set on mouse skin is “returned to the resting phase”.
